Like-named read-outs stand apart in the source and are kept apart here.
Columns and labels:
[1] = test system: NCI-60 cell line panel; assay: NCI-60 cell line screen, sulforhodamine B growth inhibition; format: cell-based, human; settings: most cases, 48 h
[2] = test system: histone acetylation biomarkers for KAT6, KAT7, KAT8, and KAT5; assay: Histone acetylation biomarker panel by western blot, MCF-7; format: cell-based
Description: Figure 5. Comparative cellular analysis of orthogonal MYST inhibitor chemotypes. (A) Chemical structures of commonly used MYST KAT inhibitors. Annotated target: KAT enzyme specified as target of each inhibitor in scientific or commercial vendor literature. Biomarker: KAT-regulated histone acetylation biomarker found to be modulated by each compound in this study. (B) Cellular response of histone acetylation biomarkers for KAT6, KAT7, KAT8, and KAT5 to treatment with drug-like MYST acetyltransferases inhibitors. MCF-7 cells were treated with escalating dosages (0.1, 1, 10, 30 μM.) of each compound for 24 h. […] Data is representative of n=2 biological replicates. […]
(§1) Target engagement was assessed using the panel of MYST-dependent histone acetylation biomarkers defined above. […] While WM-3835 has been applied to study KAT7, its initial publication alludes to its ability to inhibit both KAT6A/B and KAT7.[14], [43] […] All commercial vendors currently market WM-3835 as a KAT7 inhibitor.
(§2) General materials and methods
Total protein on western blots was
(§3) manufacturer's protocols.
KAT capture and competitive chemoproteomic profiling
(§4) for 2 hours, then lyophilized.

[3] = test system: H3K14Ac (KAT7); assay: Histone acetylation biomarker western blot, MCF-7; format: cell-based; settings: MCF-7 cells, 24 h
[4] = test system: KAT6A MYST domain; settings: MYST domains, cited from earlier work
[5] = test system: KAT7 MYST domain; settings: MYST domains, cited from earlier work
[6] = test system: KAT5 MYST domain; settings: MYST domains, cited from earlier work
[7] = test system: proteins captured by H3K14-CoA resin from HeLa nuclear extracts; assay: Proteome-wide competitive chemoproteomic profiling (H3K14-CoA beads, TMT LC-MS/MS); format: binding; settings: for Log2FC (100nM) / (000nM): 100 nM WM-3835, H3K14-CoA beads; for Log2FC (100nM) / (000nM) / Log2FC (1000nM) / (000nM) / Log2FC (10000nM) / (000nM): TMT; for Log2FC (1000nM) / (000nM): 1000 nM WM-3835, H3K14-CoA beads; for Log2FC (10000nM) / (000nM): 10000 nM WM-3835, H3K14-CoA beads
[8] = test system: H3K23Ac (KAT6A/B); assay: Histone acetylation biomarker western blot, MCF-7; format: cell-based; settings: MCF-7 cells, 24 h
[9] = test system: H4K16Ac (KAT8); assay: Histone acetylation biomarker western blot, MCF-7; format: cell-based; settings: MCF-7 cells, 24 h, up to 30 μM
Experimental: as §1, §2
Total protein on western blots was […]
as §3
KAT capture and competitive chemoproteomic profiling […]
as §4
12 μL triethylamine. […] The beads were then magnetically separated […]
distinguish between tightly grouped and diffuse clusters, compactness was quantified by calculating the average pairwise Euclidean distance between all points within each cluster. Clusters with lower average

[10] = molecular target: KAT6A MYST domain; settings: SPR, MYST domains, cited from earlier work
[11] = molecular target: KAT7 MYST domain; settings: SPR, MYST domains, as previously described (WM-8014); ref https://www.nature.com/articles/s41586-019-1835-6; cited from earlier work
[12] = molecular target: KAT5 MYST domain; settings: SPR, MYST domains, as previously described (WM-8014); ref https://www.nature.com/articles/s41586-019-1835-6; cited from earlier work
[13] = test system: KAT6B MYST domain; design: method as in https://www.nature.com/articles/s41586-018-0387-5; settings: MYST domains, 0.4 uM AcCoA, H4 peptide; ref https://www.nature.com/articles/s41586-018-0387-5; cited from earlier work
[14] = test system: KAT8 MYST domain; design: method as in https://www.nature.com/articles/s41586-018-0387-5; settings: MYST domains, 0.4 uM AcCoA, H4 peptide; ref https://www.nature.com/articles/s41586-018-0387-5; cited from earlier work
[15] = protein MBTD1 (Q05BQ5, NuA4/Tip60)
[16] = protein MRGBP (Q9NV56, NuA4/Tip60)
[17] = protein TRRAP (Q9Y4A5, NuA4/Tip60)

C[C@H](CN[C@@H](C(=O)Nc1ccc(-c2cnn(C)c2)cn1)c1ccccc1)c1ccc(C#N)cc1 [CPI-1612]
growth inhibition potency compared with PF-9363 [1]: much more potent

O=C(NNS(=O)(=O)c1ccccc1F)c1cc(F)cc(-c2ccccn2)c1 [WM-1119]
effect on biomarkers other than KAT6A/B ([2]; MCF-7 cells, high concentrations): untouched | inhibition of KAT7 (H3K14Ac) at the highest concentration tested ([3]; 30 μM): little inhibition of KAT7 | IC50 ([4]; 0.4 uM AcCoA, ref https://www.nature.com/articles/s41586-018-0387-5, read-out: KAT6A IC50 in μM (paper 1)): 0.0063 µM | IC50 ([4]; 1 μM acetyl-CoA, ref https://www.nature.com/articles/s41586-019-1835-6, read-out: KAT6A IC50 in μM (paper2)): 0.077 µM | IC50 ([5]; 1 μM acetyl-CoA, ref https://www.nature.com/articles/s41586-019-1835-6, read-out: KAT7 IC50 in μM (paper2)): 0.578 µM | IC50 ([6]; 1 μM acetyl-CoA, ref https://www.nature.com/articles/s41586-019-1835-6, read-out: KAT5 IC50 in μM (paper2)): 9.8 µM

Cc1cc(-c2ccccc2)cc(C(=O)NNS(=O)(=O)c2cccc(O)c2)c1F [WM-3835]
competition of JADE2 versus BRPF3 capture ([7]; 0, 0.1, 1, 10 μM): differential competition of JADE2 and BRPF3 capture | Log2FC (100nM) / (000nM) ([7]; protein KAT14 (Q9H8E8, STAGA)): 0.25 | Log2FC (1000nM) / (000nM) ([7]; protein KAT14 (Q9H8E8, STAGA)): -0.01 | Log2FC (10000nM) / (000nM) ([7]; protein KAT14 (Q9H8E8, STAGA)): -0.28 | Log2FC (100nM) / (000nM) [7, 15]: 0.4 | Log2FC (1000nM) / (000nM) [7, 15]: 0.54 | Log2FC (10000nM) / (000nM) [7, 15]: 0.24 | Log2FC (100nM) / (000nM) [7, 16]: 0.37 | Log2FC (1000nM) / (000nM) [7, 16]: 0.49 | Log2FC (10000nM) / (000nM) [7, 16]: 0.27 | Log2FC (100nM) / (000nM) [7, 17]: -0.03 | Log2FC (1000nM) / (000nM) [7, 17]: 0.04 | Log2FC (10000nM) / (000nM) [7, 17]: -0.06 | more potent inhibition of KAT6A/B (H3K23Ac) than KAT7 (H3K14Ac) ([2]; MCF-7 model, 24 h): ~ 100 fold | inhibition of KAT6A/B-catalyzed H3K23Ac [8]: potently inhibits | inhibition of KAT8 (H4K16Ac) [9]: not KAT8 | IC50 ([4]; 1 μM acetyl-CoA, WM-3835 sheet, ref https://www.nature.com/articles/s41586-019-1835-6, read-out: KAT6A IC50): 0.017 µM | IC50 ([5]; 1 μM acetyl-CoA, WM-3835 sheet, ref https://www.nature.com/articles/s41586-019-1835-6, read-out: KAT7 IC50): 0.03 µM | IC50 ([6]; 1 μM acetyl-CoA, WM-3835 sheet, ref https://www.nature.com/articles/s41586-019-1835-6, read-out: KAT5 IC50): 0.312 µM | Kd ([10]; as previously described (WM-8014), ref https://www.nature.com/articles/s41586-019-1835-6): 7 nM | Kd [11]: 34 nM | Kd [12]: 500 nM

Cc1cc(-c2ccccc2)cc(C(=O)NNS(=O)(=O)c2ccccc2)c1F [WM-8014]
doses at which KAT7 (H3K14Ac) is inhibited [3]: 10 to 30 µM | inhibition of KAT8 (H4K16Ac) [9]: not KAT8 | IC50 ([4]; 0.4 uM AcCoA, H4 peptide, ref https://www.nature.com/articles/s41586-018-0387-5, read-out: KAT6A IC50): 0.0082 µM | IC50 [13]: 28 nM | IC50 ([5]; 1 uM AcCoA, H4 FL, ref https://www.nature.com/articles/s41586-018-0387-5, read-out: KAT7 IC50): 0.342 µM | IC50 [14]: 11000 nM | IC50 ([6]; 5 uM AcCoA, H4 peptide, ref https://www.nature.com/articles/s41586-018-0387-5, read-out: KAT5 IC50): 0.224 µM | Kd ([10]; ref https://www.nature.com/articles/s41586-018-0387-5): 5.1 nM

— paper doi:10.1101/2025.04.25.650653, “Hierarchical small molecule inhibition of MYST acetyltransferases” (bioRxiv, 2025)
